The target in this assay is T1, USP28 (His-tagged USP28-FL-mammalian) (Homo sapiens, UniProt Q96RU2).
T1 construct: Expression of USP28 (1-1077)-TEV-6*His (pTT5 vector); made in house; host or cells: Expi293f cells (pTT5 vector)
T1 sequence (Q96RU2 1-1077): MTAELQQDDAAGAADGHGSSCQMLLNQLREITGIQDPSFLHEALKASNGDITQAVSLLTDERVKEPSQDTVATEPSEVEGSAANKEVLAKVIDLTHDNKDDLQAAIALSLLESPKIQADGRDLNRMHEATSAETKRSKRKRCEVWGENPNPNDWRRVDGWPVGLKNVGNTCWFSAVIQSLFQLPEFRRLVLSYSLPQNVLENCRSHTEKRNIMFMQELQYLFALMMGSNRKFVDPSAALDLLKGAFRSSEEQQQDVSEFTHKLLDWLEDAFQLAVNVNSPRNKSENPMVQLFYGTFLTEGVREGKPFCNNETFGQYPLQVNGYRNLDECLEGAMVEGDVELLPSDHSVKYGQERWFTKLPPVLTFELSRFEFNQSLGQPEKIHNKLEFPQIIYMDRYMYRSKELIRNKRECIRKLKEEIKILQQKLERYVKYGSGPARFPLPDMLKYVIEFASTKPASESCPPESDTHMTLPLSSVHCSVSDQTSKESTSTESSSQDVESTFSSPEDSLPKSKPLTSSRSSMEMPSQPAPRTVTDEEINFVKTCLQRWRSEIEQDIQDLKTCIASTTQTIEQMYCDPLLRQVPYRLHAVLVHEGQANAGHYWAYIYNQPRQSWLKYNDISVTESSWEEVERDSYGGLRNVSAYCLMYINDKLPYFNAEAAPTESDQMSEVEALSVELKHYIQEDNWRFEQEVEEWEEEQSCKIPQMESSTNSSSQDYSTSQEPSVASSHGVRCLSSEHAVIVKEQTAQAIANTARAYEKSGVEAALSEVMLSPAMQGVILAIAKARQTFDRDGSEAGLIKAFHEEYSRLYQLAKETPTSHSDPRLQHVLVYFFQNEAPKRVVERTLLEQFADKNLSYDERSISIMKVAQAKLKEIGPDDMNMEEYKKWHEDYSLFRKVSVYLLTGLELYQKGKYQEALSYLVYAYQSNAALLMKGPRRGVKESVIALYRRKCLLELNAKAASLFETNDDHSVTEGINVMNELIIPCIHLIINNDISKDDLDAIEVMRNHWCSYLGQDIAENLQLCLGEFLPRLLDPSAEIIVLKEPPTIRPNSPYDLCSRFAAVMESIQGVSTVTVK
As to the kind of experiment: Ubiquitin-Rhodamine 110 Assay for USP28 Activity, Example A-1(a). The assay is classed as biochemical. The note with it: Ubiquitin-Rhodamine 110 assay, Example A-1(a); read-out: USP28 A-1(a) IC50 range. The method in brief:
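Full-length His-tagged USP28 (1-1077, Expi293F-expressed; […]) was preincubated 30 min with compound (25 μM–1.3 nM, 10-point 3-fold) in 20 mM Tris-HCl pH 8.0, 3 mM BME, 0.03% BGG, 0.01% Triton X-100. Ub-Rh110 (25 nM) was then added for 45 min at room temperature, stopped with citric acid, and read by fluorescence (485/535 nm).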
As a reminder, the IC50 is the concentration that gives 50% inhibition. With `Cc1ccc2c(N)c(C(=O)N[C@H]3CCc4nc(N5C[C@@H]6CCN[C@H](C5)C6(F)F)ccc4C3)sc2n1` [Example 367, 3-amino-N-[(6S)-2-[(1R,5S)-9,9-difluoro-2,7-diazabicyclo[3.3.1]nonan-7-yl]-5,6,7,8-tetrahydroquinolin-6-yl]-6-methylthieno[2,3-b]pyridine-2-carboxamide], the IC50 lay within 1 to 50 nM.
For the compound `Cc1ccc2c(N)c(C(=O)N[C@H]3COc4cc(N5C[C@@H](N)[C@@H]6OCC[C@@H]65)ccc4C3)sc2n1` [Example 425, N-[(3R)-7-[(3aS,6R,6aS)-6-amino-hexahydro-2H-furo[3,2-b]pyrrol-4-yl]-3,4-dihydro-2H-1-benzopyran-3-yl]-3-amino-6-methylthieno[2,3-b]pyridine-2-carboxamide], the IC50 lay within 1 to 50 nM.
Regarding `Cc1ccc2c(N)c(C(=O)N[C@H]3CCc4nc(N5C[C@H](N)[C@]6(CCOC6)C5)ccc4C3)sc2n1` [Example 430, 3-amino-N-[(6S)-2-[(5S,9R)-9-amino-2-oxa-7-azaspiro[4.4]nonan-7-yl]-5,6,7,8-tetrahydroquinolin-6-yl]-6-methylthieno[2,3-b]pyridine-2-carboxamide], the IC50 was 50 to 200 nM.
With `COC[C@@H]1[C@@H](N)CCN1c1ccc2c(n1)CC[C@H](NC(=O)c1sc3nc(C)ccc3c1N)C2` [Example 420, 3-amino-N-[(6S)-2-[(2S,3S)-3-amino-2-(methoxymethyl)pyrrolidin-1-yl]-5,6,7,8-tetrahydroquinolin-6-yl]-6-methylthieno[2,3-b]pyridine-2-carboxamide], the IC50 was 1 to 50 nM.
`CCn1ccc2cc(C(=O)N[C@H]3CCc4nc(N5C[C@H](N)C6(COC6)C5)ccc4C3)cnc21` [Example 403, N-[(6S)-2-[(8R)-8-amino-2-oxa-6-azaspiro[3.4]octan-6-yl]-5,6,7,8-tetrahydroquinolin-6-yl]-1-ethyl-1H-pyrrolo[2,3-b]pyridine-5-carboxamide]: the half-maximal inhibitory concentration (IC50) was greater than 2000 nM.
Turning to `CN[C@H]1CN(c2ccc3c(n2)CC[C@H](NC(=O)c2sc4nc(C)ccc4c2N)C3)C[C@@H]1C(F)F` [Example 376, 3-amino-N-[(6S)-2-[(3S,4R)-3-(difluoromethyl)-4-(methylamino)pyrrolidin-1-yl]-5,6,7,8-tetrahydroquinolin-6-yl]-6-methylthieno[2,3-b]pyridine-2-carboxamide], the IC50 lay within 50 to 200 nM.
Regarding `Cc1ccc2c(N)c(C(=O)N(C)[C@@H]3COc4cc(N5CCNCC5)cc(F)c4C3)sc2n1` [Example 10-16, 3-amino-N-[(3S)-5-fluoro-7-(piperazin-1-yl)-3,4-dihydro-2H-1-benzopyran-3-yl]-N,6-dimethylthieno[2,3-b]pyridine-2-carboxamide], the IC50 is greater than 2000 nM.
Consider `Cc1ccc2c(N)c(C(=O)N[C@H]3CCc4cc(N5C[C@@H](CF)[C@@H](N)C5)ccc4C3)sc2n1` [Example 436, 3-amino-N-[(2S)-6-[(3R,4R)-3-amino-4-(fluoromethyl)pyrrolidin-1-yl]-1,2,3,4-tetrahydronaphthalen-2-yl]-6-methylthieno[2,3-b]pyridine-2-carboxamide], for which the IC50 lay in the range of 1 to 50 nM.
For the compound `CO[C@H]1CN(c2ncc3c(n2)CC[C@@H](NC(=O)c2sc4nc(C)ccc4c2N)C3)C[C@@H]1N` [Example 187, 3-amino-N-[(6R)-2-[(3S,4S)-3-amino-4-methoxypyrrolidin-1-yl]-5,6,7,8-tetrahydroquinazolin-6-yl]-6-methylthieno[2,3-b]pyridine-2-carboxamide], the IC50 fell in the range of 200 to 2000 nM.
For the compound `Cc1ccc2c(N)c(C(=O)N[C@@H]3CCc4nc(N5C[C@H](OC(C)C)[C@@H](N)C5)ncc4C3)sc2n1` [Example 272, 3-amino-N-[(6R)-2-[(3S,4S)-3-amino-4-(propan-2-yloxy)pyrrolidin-1-yl]-5,6,7,8-tetrahydroquinazolin-6-yl]-6-methylthieno[2,3-b]pyridine-2-carboxamide], the IC50 was in the range of 200 to 2000 nM.
To `Cc1cc(C)c2c(N)c(C(=O)N[C@@H]3CCc4nc(N5C[C@H](OC(C)C)[C@@H](N)C5)ncc4C3)sc2n1` (single isomer, unassigned) [Example 31-2] belongs greater than 2000 nM; to `Cc1ccc2c(N)c(C(=O)N[C@H]3CCc4nc(N5CC[C@@]6(C5)OCC[C@H]6N)ccc4C3)sc2n1` [Example 405, 3-amino-N-[(6S)-2-[(4R,5S)-4-amino-1-oxa-7-azaspiro[4.4]nonan-7-yl]-5,6,7,8-tetrahydroquinolin-6-yl]-6-methylthieno[2,3-b]pyridine-2-carboxamide], 50 to 200 nM.
`Cc1ccc2c(N)c(C(=O)N[C@H]3CCc4nc(N5C[C@H]6COC[C@@]6(N)C5)ccc4C3)sc2n1` [Example 395, N-[(6S)-2-[(3aS,6aR)-3a-amino-hexahydro-1H-furo[3,4-c]pyrrol-5-yl]-5,6,7,8-tetrahydroquinolin-6-yl]-3-amino-6-methylthieno[2,3-b]pyridine-2-carboxamide]: the IC50 was in the range of 50 to 200 nM.
Turning to `CO[C@]1(C)CN(c2ccc3c(n2)CC[C@H](NC(=O)c2sc4nc(C)ccc4c2N)C3)C[C@@H]1N` [Example 427, 3-amino-N-[(6S)-2-[(3R,4S)-4-amino-3-methoxy-3-methylpyrrolidin-1-yl]-5,6,7,8-tetrahydroquinolin-6-yl]-6-methylthieno[2,3-b]pyridine-2-carboxamide], the half-inhibitory concentration (IC50) fell in the range of 50 to 200 nM.
`Cc1ccc2c(N)c(C(=O)N[C@@H]3CCc4cc(N5CCNCC5)ncc4C3)sc2n1` (single isomer, unassigned) [Example 32-2]: the IC50 lay within 200 to 2000 nM.
Take `CO[C@@]12CCN[C@H]1CN(c1ccc3c(c1)OC[C@H](NC(=O)c1sc4nc(C)ccc4c1N)C3)C2` [Example 289, N-[(3R)-7-[(3aR,6aS)-3a-methoxy-octahydropyrrolo[2,3-c]pyrrol-5-yl]-3,4-dihydro-2H-1-benzopyran-3-yl]-3-amino-6-methylthieno[2,3-b]pyridine-2-carboxamide]: the IC50 is 1 to 50 nM.
On to `Cc1ccc2c(N)c(C(=O)N[C@H]3COc4cc(N5C[C@H](N)[C@H]6OCC[C@H]65)ccc4C3)sc2n1` [Example 426, N-[(3R)-7-[(3aR,6S,6aR)-6-amino-hexahydro-2H-furo[3,2-b]pyrrol-4-yl]-3,4-dihydro-2H-1-benzopyran-3-yl]-3-amino-6-methylthieno[2,3-b]pyridine-2-carboxamide], for which the IC50 lay within 1 to 50 nM.
For the compound `Cc1ccc2c(N)c(C(=O)N[C@H]3CCc4nc(N5CC6(C[C@@H](N)CO6)C5)ccc4C3)sc2n1` [Example 398, 3-amino-N-[(6S)-2-[(7R)-7-amino-5-oxa-2-azaspiro[3.4]octan-2-yl]-5,6,7,8-tetrahydroquinolin-6-yl]-6-methylthieno[2,3-b]pyridine-2-carboxamide], the IC50 lay within 50 to 200 nM.
Take `Cc1ccc2c(N)c(C(=O)N[C@H]3CCc4nc(N5C[C@@H]6COC[C@]6(N)C5)ccc4C3)sc2n1` [Example 394, N-[(6S)-2-[(3aR,6aS)-3a-amino-hexahydro-1H-furo[3,4-c]pyrrol-5-yl]-5,6,7,8-tetrahydroquinolin-6-yl]-3-amino-6-methylthieno[2,3-b]pyridine-2-carboxamide]: the IC50 lay in the range of 50 to 200 nM.
Turning to `CO[C@H]1CN(c2ncc3c(n2)CC[C@H](NC(=O)c2sc4nc(C)ccc4c2N)C3)C[C@@H]1N` [Example 186, 3-amino-N-[(6S)-2-[(3S,4S)-3-amino-4-methoxypyrrolidin-1-yl]-5,6,7,8-tetrahydroquinazolin-6-yl]-6-methylthieno[2,3-b]pyridine-2-carboxamide], the IC50 is greater than 2000 nM.
The figure for `Cc1ccc2c(N)c(C(=O)N[C@H]3CCc4nc(N5C[C@H](N)C6(C5)OCCO6)ccc4C3)sc2n1` (single isomer, unassigned) [Example 29-1] is 200 to 2000 nM; for `COCC1(N)CN(c2ccc3c(c2)OC[C@H](NC(=O)c2sc4nc(C)ccc4c2N)C3)C1` [Example 373, 3-amino-N-[(3R)-7-[3-amino-3-(methoxymethyl)azetidin-1-yl]-3,4-dihydro-2H-1-benzopyran-3-yl]-6-methylthieno[2,3-b]pyridine-2-carboxamide] it is 1 to 50 nM.

The record behind these values is patent publication US11524966B1 (Valo Early Discovery, Inc., priority 2017, dated 2022).
